# Columns and labels:
# CD4+ and CD8+ T cells [1] = experiment: Intracellular cytokines after PMA/Ionomycin and Golgi inhibitor; type: cell-based, human
# Protocol: (§1) Thawed cells generated by the process described were assessed for a marker of apoptosis (e.g., percentage of caspase positive CAR-T cells), phenotypic profile, and ability to produce intracellular cytokines following stimulation with PMA/Ionomycin and a Golgi Inhibitor. […] Thawed cells also were stained for surface expression of CD27 and CCR7 by flow cytometry.
# mTOR = target: T1, mTOR (Homo sapiens, UniProt P42345); experiment: Intracellular S6 phosphorylation in engineered T cells produced with mTOR kinase inhibitor; type: cell-based; settings: 1 μM Compound 63 during process; CD8+ memory subsets
# T1 construct: endogenous in cells; host or cells: primary human CD4+ and CD8+ T cells transduced with an anti-CD19 CAR
# Protocol: (§2) CD4+ and CD8+ T cells were isolated by immunoaffinity-based enrichment from leukapheresis samples from human donor subjects. At day 1, isolated CD4+ and CD8+ T cells were mixed 1:1 and stimulated with an anti-CD3/anti-CD28 oligomeric stimulatory reagent generated as described in Example 2 in serum-free media supplemented with recombinant IL-2 (100 IU/mL), recombinant IL-7 (600 IU/mL), and recombinant IL-15 (100 IU/mL) with or without 1 μM of 2-(3-hydroxyphenyl)-9-(2-isopropylphenyl)-8-oxo-8,9-dihydro-7H-purine-6-carboxamide (Compound 63). The T cells cultured with our without Compound 63 were incubated overnight (approximately 24 hr) at 37° C., and were then transduced in serum-free culture media with our without Compound 63 ([…]) with a lentiviral vector encoding an anti-CD19 CAR. […]
# (§3) The cryofrozen engineered CD4+ and CD8+ T cells were thawed, and T cells were assessed for intracellular S6 phosphorylation, a ribosomal protein and marker of mTOR inhibition, and co-stained for surface expression of CD4 or CD8 and for CCR7 and CD45RA as markers of memory subsets. pS6 expression in live CD8+ T cells by memory subsets was shown by the expression of CCR7 and CD45RA as shown in FIG. 30A.
# CAR-T cells = experiment: Apoptosis marker (intracellular caspase) in thawed CAR-T cells; type: cell-based, human; settings: vs cells not incubated with compound 63
# Protocol: as §1
# CD27 and CCR7 = experiment: Surface CD27 and CCR7 phenotype of T cells produced with Compound 63; type: cell-based, human; settings: CD8+ and CD4+ T cells
# Protocol: as §1
# [2] = system: anti-idiotype (ID) antibody against the anti-CD19 CAR; experiment: Long-term 12 day stimulation with anti-idiotype antibody beads; type: cell-based, human; settings: 12 days anti-ID beads
# Excerpt: To further assess the functional activity of the cells, the generated T cell compositions were stimulated long-term over 12 days with beads conjugated with an anti-idiotype (ID) antibody against the anti-CD19 CAR, and expansion and survival of the cells were monitored (FIG. 31F, left panel) and total expansion metric calculated by area under the curve (FIG. 31F, right panel).
# CD4+ and CD8+ T cells [3] = experiment: Percent viable and total live cells of T cell composition produced with Compound 63; type: cell-based, human; settings: 1 μM Compound 63 during process
# Protocol: as §2, §3
smiles,measurement,setting,value
"CC(C)c1ccccc1-n1c(=O)[nH]c2c(C(N)=O)nc(-c3cccc(O)c3)nc21 [Compound 63, 2-(3-hydroxyphenyl)-9-(2-isopropylphenyl)-8-oxo-8,9-dihydro-7H-purine-6-carboxamide]","level of intracellular cytokines IL2, IFNg, or TNF",CD4+ and CD8+ T cells [1],substantially improved
same,pS6 mean fluorescence intensity (marker of mTOR inhibition),mTOR,decreased the mean fluorescence intensity of stimulated memory T cell subsets
same,intracellular caspase expression,CAR-T cells,less intracellular caspase expression
same,phenotypic subset profile by CD27 and/or CCR7,CD27 and CCR7,did not substantially alter the phenotypic subset profile of the cells
same,expansion and survival after long-term CAR-specific stimulation,[2],improved function of the T cells was observed following long-term CAR-specific stimulation
same,percent viable cells or total live cells,CD4+ and CD8+ T cells [3],did not impact the percent viable cells or the total live cells
